How the values were obtained:
P388 [1] = experiment: Cytotoxicity against mouse CPT45-resistant topoisomerase 1-deficient P388 cells after 4 days by MTT assay; format: functional, cell-based; details: P388, 96 h
[2] = biological target: T1, DNA topoisomerase 1 (Homo sapiens) (UniProt P11387); experiment: Inhibition of human topoisomerase 1 expressed in Escherichia coli assessed as YepG plasmid DNA cleavage
T1 sequence (whole entry): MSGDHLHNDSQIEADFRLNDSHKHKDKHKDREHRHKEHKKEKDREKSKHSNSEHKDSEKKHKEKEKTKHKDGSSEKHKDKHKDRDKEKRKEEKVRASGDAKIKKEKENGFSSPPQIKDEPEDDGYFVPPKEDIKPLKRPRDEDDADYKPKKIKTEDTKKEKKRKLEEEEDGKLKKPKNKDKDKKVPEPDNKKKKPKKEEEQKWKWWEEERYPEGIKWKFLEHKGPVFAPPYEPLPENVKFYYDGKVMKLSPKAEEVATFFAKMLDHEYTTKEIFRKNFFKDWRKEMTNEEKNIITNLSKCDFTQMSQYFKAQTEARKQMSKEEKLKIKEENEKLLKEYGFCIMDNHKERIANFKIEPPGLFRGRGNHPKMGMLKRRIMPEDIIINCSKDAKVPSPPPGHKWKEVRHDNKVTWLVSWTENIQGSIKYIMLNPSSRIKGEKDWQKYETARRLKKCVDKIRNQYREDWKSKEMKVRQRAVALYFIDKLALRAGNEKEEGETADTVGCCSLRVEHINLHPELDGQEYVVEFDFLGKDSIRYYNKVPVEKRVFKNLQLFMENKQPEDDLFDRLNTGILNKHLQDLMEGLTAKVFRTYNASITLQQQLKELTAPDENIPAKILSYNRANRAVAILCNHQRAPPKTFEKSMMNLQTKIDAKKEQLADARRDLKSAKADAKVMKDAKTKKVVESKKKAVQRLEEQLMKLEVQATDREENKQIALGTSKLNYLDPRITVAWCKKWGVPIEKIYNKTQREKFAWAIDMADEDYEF

[3] = Cytotoxicity against human multidrug resistant MDR1 overexpressing human KBV1 cells after 4 days by MTT assay; format: functional, cell-based; details: KB-V1, 96 h
[4] = Cytotoxicity against human KB3-1 cells after 4 days by MTT assay; format: functional, cell-based; details: KB 3-1, 96 h
[5] = Cytotoxicity against human camptothecin-resistant CPT-K5 cells after 4 days by MTT assay; format: functional, cell-based; details: CPT-K5, 96 h
P388 [6] = experiment: Cytotoxicity against mouse P388 cells after 4 days by MTT assay; format: functional, cell-based; details: P388, 96 h
[7] = Cytotoxicity against human RPMI8402 cells after 4 days by MTT assay; format: functional, cell-based; details: RPMI 8402, 96 h
[8] = Cytotoxicity against human multidrug resistant BCRP overexpressing human KBH5.0 cells after 4 days by MTT assay; format: functional, cell-based; details: KBH5.0 cell, 96 h
MDA-MB-231 [9] = experiment: Antitumor activity against human MDA-MB-231 cells xenografted in athymic nude mouse assessed as tumor volume on day 21 at initial dose of 2.0 mg/kg, po qd X 4/week and dose adjustments were made based upon effect or lack of effect on average body weight (29.3 mg/kg total dose); format: functional
MDA-MB-231 [10] = experiment: Antitumor activity against human MDA-MB-231 cells xenografted in athymic nude mouse assessed as tumor volume on day 31 at initial dose of 1.0 mg/kg, ip qd X 4/week and dose adjustments were made based upon effect or lack of effect on average body weight (14.6 mg/kg total dose); format: functional; details: route intraperitoneal
MDA-MB-231 [11] = experiment: Antitumor activity against human MDA-MB-231 cells xenografted in athymic nude mouse assessed as tumor volume on day 7 at initial dose of 2.0 mg/kg, po qd X 4/week and dose adjustments were made based upon effect or lack of effect on average body weight (29.3 mg/kg total dose); format: functional
MDA-MB-231 [12] = experiment: Antitumor activity against human MDA-MB-231 cells xenografted in athymic nude mouse assessed as tumor volume on day 7 at initial dose of 1.0 mg/kg, ip qd X 4/week and dose adjustments were made based upon effect or lack of effect on average body weight (14.6 mg/kg total dose); format: functional; details: route intraperitoneal
MDA-MB-231 [13] = experiment: Antitumor activity against human MDA-MB-231 cells xenografted in athymic nude mouse assessed as tumor volume on day 21 at initial dose of 1.0 mg/kg, ip qd X 4/week and dose adjustments were made based upon effect or lack of effect on average body weight (14.6 mg/kg total dose); format: functional; details: route intraperitoneal
MDA-MB-231 [14] = experiment: Antitumor activity against human MDA-MB-231 cells xenografted in athymic nude mouse assessed as tumor volume on day 31 at initial dose of 2.0 mg/kg, po qd X 4/week and dose adjustments were made based upon effect or lack of effect on average body weight (29.3 mg/kg total dose); format: functional
MDA-MB-231 [15] = experiment: Antitumor activity against human MDA-MB-231 cells xenografted in athymic nude mouse assessed as tumor volume on day 14 at initial dose of 2.0 mg/kg, po qd X 4/week and dose adjustments were made based upon effect or lack of effect on average body weight (29.3 mg/kg total dose); format: functional
MDA-MB-231 [16] = experiment: Antitumor activity against human MDA-MB-231 cells xenografted in athymic nude mouse assessed as tumor volume on day 14 at initial dose of 1.0 mg/kg, ip qd X 4/week and dose adjustments were made based upon effect or lack of effect on average body weight (14.6 mg/kg total dose); format: functional; details: route intraperitoneal
MDA-MB-231 [17] = experiment: Antitumor activity against human MDA-MB-231 cells xenografted in athymic nude mouse assessed as tumor volume on day 31 at initial dose of 2.0 mg/kg, ip qd X 5/week for 2 weeks and dose adjustments were made based upon effect or lack of effect on average body weight (32.5 mg/kg total dose); format: functional; details: route intraperitoneal
MDA-MB-231 [18] = experiment: Antitumor activity against human MDA-MB-231 cells xenografted in athymic nude mouse assessed as tumor volume on day 21 at initial dose of 2.0 mg/kg, ip qd X 5/week for 2 weeks and dose adjustments were made based upon effect or lack of effect on average body weight (32.5 mg/kg total dose); format: functional; details: route intraperitoneal
MDA-MB-231 [19] = experiment: Antitumor activity against human MDA-MB-231 cells xenografted in athymic nude mouse assessed as tumor volume on day 31 at initial dose of 3.0 mg/kg, po qd X 5/week for 2 weeks and dose adjustments were made based upon effect or lack of effect on average body weight (72.5 mg/kg total dose); format: functional
MDA-MB-231 [20] = experiment: Antitumor activity against human MDA-MB-231 cells xenografted in athymic nude mouse assessed as tumor volume on day 21 at initial dose of 3.0 mg/kg, po qd X 5/week for 2 weeks and dose adjustments were made based upon effect or lack of effect on average body weight (72.5 mg/kg total dose); format: functional
MDA-MB-231 [21] = experiment: Antitumor activity against human MDA-MB-231 cells xenografted in athymic nude mouse assessed as tumor volume on day 7 at initial dose of 3.0 mg/kg, po qd X 5/week for 2 weeks and dose adjustments were made based upon effect or lack of effect on average body weight (72.5 mg/kg total dose); format: functional
MDA-MB-231 [22] = experiment: Antitumor activity against human MDA-MB-231 cells xenografted in athymic nude mouse assessed as tumor volume on day 7 at initial dose of 2.0 mg/kg, ip qd X 5/week for 2 weeks and dose adjustments were made based upon effect or lack of effect on average body weight (32.5 mg/kg total dose); format: functional; details: route intraperitoneal
MDA-MB-231 [23] = experiment: Antitumor activity against human MDA-MB-231 cells xenografted in athymic nude mouse assessed as tumor volume on day 14 at initial dose of 3.0 mg/kg, po qd X 5/week for 2 weeks and dose adjustments were made based upon effect or lack of effect on average body weight (72.5 mg/kg total dose); format: functional
MDA-MB-231 [24] = experiment: Antitumor activity against human MDA-MB-231 cells xenografted in athymic nude mouse assessed as tumor volume on day 14 at initial dose of 2.0 mg/kg, ip qd X 5/week for 2 weeks and dose adjustments were made based upon effect or lack of effect on average body weight (32.5 mg/kg total dose); format: functional; details: route intraperitoneal

Row | Compound | IC50 (P388 [1]) [µM] | REC [2] | IC50 [3] [µM] | IC50 [4] [µM] | IC50 [5] [µM] | IC50 (P388 [6]) [µM] | IC50 [7] [µM] | IC50 [8] [µM] | further results
1 | COc1cc2c(=O)n(CCNC(CO)(CO)CO)c3c4cc5c(cc4nnc3c2cc1OC)OCO5 | 3 | 0.2 | 0.28 | 0.05 | 5.7 | 0.04 | 0.065 | 0.4 | 
2 | CC[C@@]1(O)C(=O)OCc2c1cc1n(c2=O)Cc2cc3ccccc3nc2-1 [CAMPTOTHECIN] | > 10 | 0.2 |  | 0.015 |  | 0.009 | 0.005 |  | 
3 | COc1cc2c(=O)n(CCNC(C)C)c3c4cc5c(cc4nnc3c2cc1OC)OCO5 | 0.11 | 0.08 | 0.007 | 0.0005 | 0.3 | 0.002 | 0.003 | 0.002 | Activity (MDA-MB-231 [9]): 185 mm3; Activity (MDA-MB-231 [10]): 231 mm3; Activity (MDA-MB-231 [11]): 82 mm3; Activity (MDA-MB-231 [12]): 72 mm3; Activity (MDA-MB-231 [13]): 150 mm3; Activity (MDA-MB-231 [14]): 253 mm3; Activity (MDA-MB-231 [15]): 92 mm3; Activity (MDA-MB-231 [16]): 112 mm3
4 | COc1cc2c(=O)n(CCO)c3c4cc5c(cc4nnc3c2cc1OC)OCO5 | 0.7 | 0.3 | 0.018 | 0.01 | 1.3 | 0.012 | 0.013 | 0.055 | 
5 | COc1cc2c(=O)n(CCN(C)C)c3c4cc5c(cc4nnc3c2cc1OC)OCO5 | 0.23 | 0.3 | 0.004 | 0.005 | 0.74 | 0.002 | 0.002 | 0.004 | 
6 | COc1cc2c(=O)n(CCN(C)CCN(C)C)c3c4cc5c(cc4nnc3c2cc1OC)OCO5 | 0.3 | 0.4 | 0.18 | 0.017 | 2.2 | 0.019 | 0.033 | 0.25 | 
7 | COc1cc2c(=O)n(CCN(Cc3ccccc3)C(C)C)c3c4cc5c(cc4nnc3c2cc1OC)OCO5 | 2.3 | 0.5 | 0.075 | 0.016 | 3.3 | 0.021 | 0.045 | 0.04 | 
8 | CNCCn1c(=O)c2cc(OC)c(OC)cc2c2nnc3cc4c(cc3c21)OCO4 | 0.2 | 0.03 | 0.023 | 0.0007 | 0.23 | 0.001 | 0.003 | 0.018 | Activity (MDA-MB-231 [17]): 104 mm3; Activity (MDA-MB-231 [18]): 109 mm3; Activity (MDA-MB-231 [19]): 177 mm3; Activity (MDA-MB-231 [20]): 144 mm3; Activity (MDA-MB-231 [21]): 116 mm3; Activity (MDA-MB-231 [22]): 146 mm3; Activity (MDA-MB-231 [23]): 113 mm3; Activity (MDA-MB-231 [24]): 129 mm3
9 | COc1cc2c(=O)n(CCn3ccnc3)c3c4cc5c(cc4nnc3c2cc1OC)OCO5 | > 10 | 0.1 | 3.3 | 0.38 | > 10 | 0.19 | 0.4 | 3.3 | 
10 | COc1cc2c(=O)n(CCN(C)C)c3c4cc5c(cc4ncc3c2cc1OC)OCO5 |  | 0.3 | 0.015 | 0.005 | 0.9 |  | 0.002 | 0.012 | 
11 | COc1cc2c(=O)n(CCN(C)Cc3ccccc3)c3c4cc5c(cc4nnc3c2cc1OC)OCO5 | 2.8 | 0.4 | 0.085 | 0.035 | > 10 | 0.025 | 0.04 | 0.04 | 

From ChEMBL document CHEMBL1156616, “Syntheses and biological evaluation of topoisomerase I-targeting agents related to 11-[2-(N,N-dimethylamino)ethyl]-2,3-dimethoxy-8,9-methylenedioxy-11H-isoquino[4,3-c]cinnolin-12-one (ARC-31)” (Bioorg Med Chem, 2008)
